Experimental data taken from ChEMBL document CHEMBL3885861, “Open TG-GATES”.

Species: Rattus norvegicus
Experiment: Open TG-GATES - Regimen: Single
Assay type: toxicity, organism-based, Sprague-Dawley
Parameters: regimen Single, gender Male, age 6 weeks
Conditions: in vivo, po, 0 mg/kg, route gavage, dose level Control; for APTT / Bas / Eos / Fbg / Hb / Ht / Lym / MCH / MCHC / MCV / Mono / Neu / PT / Plat / RBC / Ret / WBC: tissue Blood; for KIDNEY_L / KIDNEY_R / KIDNEY_TOTAL: tissue Kidney; for LIVER: tissue Liver; for A/G / ALP / ALT / AST / BUN / CRE / Ca / Cl / DBIL / GLC / IP / K / LDH / Na / PL / RALB / TBIL / TC / TG / TP / gamma-GTP: tissue Plasma

CCCc1cc(=O)[nH]c(=S)[nH]1 [PROPYLTHIOURACIL]
TERMINAL_BW (3 h): 182.7 g | APTT (3 h): 15.8 s | Bas (3 h): 0% | Eos (3 h): 1% | Fbg (3 h): 217.4 mg/dL | Hb (3 h): 13.2 g/dL | Ht (3 h): 39.8% | Lym (3 h): 78.6% | MCH (3 h): 22.3 pg | MCHC (3 h): 33.3% | MCV (3 h): 67.1 fL | Mono (3 h): 6.2% | Neu (3 h): 14.6% | PT (3 h): 12.6 s | Plat (3 h): 108.3 x10_4/uL | RBC (3 h): 593.2 x10_4/ul | Ret (3 h): 10.7% | WBC (3 h): 86.3 x10_2/uL | KIDNEY_L (3 h): 0.8 g | KIDNEY_R (3 h): 0.8 g | KIDNEY_TOTAL (3 h): 1.7 g | LIVER (3 h): 8.7 g | A/G (3 h): 2 | ALP (3 h): 886.8 IU/L | ALT (3 h): 39.6 IU/L | AST (3 h): 69.8 IU/L | BUN (3 h): 13.2 mg/dL | CRE (3 h): 0.4 mg/dL | Ca (3 h): 11 mg/dL | Cl (3 h): 105 meq/L | DBIL (3 h): 0.024 mg/dL | GLC (3 h): 192.6 mg/dL | IP (3 h): 9.9 mg/dL | K (3 h): 5 meq/L | LDH (3 h): 87.6 IU/L | Na (3 h): 138.6 meq/L | PL (3 h): 140.2 mg/dL | RALB (3 h): 3.6 g/dL | TBIL (3 h): 0.3 mg/dL | TC (3 h): 82.4 mg/dL | TG (3 h): 37.2 mg/dL | TP (3 h): 5.5 g/dL | gamma-GTP (3 h): 0.8 IU/L | TERMINAL_BW (6 h): 178.3 g | APTT (6 h): 16.1 s | Bas (6 h): 0% | Eos (6 h): 0% | Fbg (6 h): 206.8 mg/dL | Hb (6 h): 13 g/dL | Ht (6 h): 39.3% | Lym (6 h): 80% | MCH (6 h): 21.5 pg | MCHC (6 h): 33.1% | MCV (6 h): 64.8 fL | Mono (6 h): 6.4% | Neu (6 h): 13.6% | PT (6 h): 12.6 s | Plat (6 h): 107.1 x10_4/uL | RBC (6 h): 606.2 x10_4/ul | Ret (6 h): 10.4% | WBC (6 h): 111.4 x10_2/uL | KIDNEY_L (6 h): 0.8 g | KIDNEY_R (6 h): 0.8 g | KIDNEY_TOTAL (6 h): 1.6 g | LIVER (6 h): 7.9 g | A/G (6 h): 2.2 | ALP (6 h): 853.4 IU/L | ALT (6 h): 34.2 IU/L | AST (6 h): 66.8 IU/L | BUN (6 h): 11.8 mg/dL | CRE (6 h): 0.5 mg/dL | Ca (6 h): 10.7 mg/dL | Cl (6 h): 105.2 meq/L | DBIL (6 h): 0.046 mg/dL | GLC (6 h): 182 mg/dL | IP (6 h): 10 mg/dL | K (6 h): 5 meq/L | LDH (6 h): 82.2 IU/L | Na (6 h): 137.6 meq/L | PL (6 h): 136.6 mg/dL | RALB (6 h): 3.6 g/dL | TBIL (6 h): 0.3 mg/dL | TC (6 h): 80 mg/dL | TG (6 h): 33.4 mg/dL | TP (6 h): 5.4 g/dL | gamma-GTP (6 h): 1.8 IU/L | TERMINAL_BW (9 h): 175.9 g | APTT (9 h): 16 s | Bas (9 h): 0% | Eos (9 h): 1.2% | Fbg (9 h): 215.4 mg/dL | Hb (9 h): 13.1 g/dL | Ht (9 h): 39.7% | Lym (9 h): 77.8% | MCH (9 h): 22 pg | MCHC (9 h): 33.1% | MCV (9 h): 66.2 fL | Mono (9 h): 6.2% | Neu (9 h): 15.2% | PT (9 h): 12.5 s | Plat (9 h): 107.3 x10_4/uL | RBC (9 h): 599.2 x10_4/ul | Ret (9 h): 10.2% | WBC (9 h): 95.1 x10_2/uL | KIDNEY_L (9 h): 0.8 g | KIDNEY_R (9 h): 0.9 g | KIDNEY_TOTAL (9 h): 1.7 g | LIVER (9 h): 7.6 g | A/G (9 h): 2 | ALP (9 h): 741.2 IU/L | ALT (9 h): 33.6 IU/L | AST (9 h): 61.8 IU/L | BUN (9 h): 13.8 mg/dL | CRE (9 h): 0.5 mg/dL | Ca (9 h): 10.6 mg/dL | Cl (9 h): 107.4 meq/L | DBIL (9 h): 0.006 mg/dL | GLC (9 h): 195.4 mg/dL | IP (9 h): 11.1 mg/dL | K (9 h): 5.2 meq/L | LDH (9 h): 102.4 IU/L | Na (9 h): 139.8 meq/L | PL (9 h): 132.2 mg/dL | RALB (9 h): 3.6 g/dL | TBIL (9 h): 0.4 mg/dL | TC (9 h): 76 mg/dL | TG (9 h): 35.6 mg/dL | TP (9 h): 5.5 g/dL | gamma-GTP (9 h): 2.2 IU/L | TERMINAL_BW (24 h): 192.6 g | APTT (24 h): 16.1 s | Bas (24 h): 0% | Eos (24 h): 1% | Fbg (24 h): 211.2 mg/dL | Hb (24 h): 13.2 g/dL | Ht (24 h): 40% | Lym (24 h): 76.6% | MCH (24 h): 21.6 pg | MCHC (24 h): 33% | MCV (24 h): 65.5 fL | Mono (24 h): 9% | Neu (24 h): 13.6% | PT (24 h): 12.4 s | Plat (24 h): 104.6 x10_4/uL | RBC (24 h): 611.6 x10_4/ul | Ret (24 h): 9.6% | WBC (24 h): 123.5 x10_2/uL | KIDNEY_L (24 h): 0.8 g | KIDNEY_R (24 h): 0.9 g | KIDNEY_TOTAL (24 h): 1.7 g | LIVER (24 h): 9.1 g | A/G (24 h): 2 | ALP (24 h): 974.2 IU/L | ALT (24 h): 46.2 IU/L | AST (24 h): 70.2 IU/L | BUN (24 h): 19.2 mg/dL | CRE (24 h): 0.6 mg/dL | Ca (24 h): 10.9 mg/dL | Cl (24 h): 105.2 meq/L | DBIL (24 h): 0.016 mg/dL | GLC (24 h): 196.6 mg/dL | IP (24 h): 7.9 mg/dL | K (24 h): 5 meq/L | LDH (24 h): 86.6 IU/L | Na (24 h): 138.6 meq/L | PL (24 h): 152.8 mg/dL | RALB (24 h): 3.7 g/dL | TBIL (24 h): 0.3 mg/dL | TC (24 h): 83.2 mg/dL | TG (24 h): 96.2 mg/dL | TP (24 h): 5.6 g/dL | gamma-GTP (24 h): 2.4 IU/L
